36 compounds from ChEMBL document CHEMBL1136222, “1-Benzyloxy-4,5-dihydro-1H-imidazol-2-yl-amines, a novel class of NR1/2B subtype selective NMDA receptor antagonists” (Bioorg Med Chem Lett, 2003) can be followed below.

The target in series [1] is Glutamate NMDA receptor. The experiment in a line: Binding affinity for N-methyl-D-aspartate glutamate receptor was measured through displacement of [3H]25-6981. Type of series: protein-complex assay. Background: In a radioligand displacement assay an active substance lowers the binding of a labelled ligand.
Series [2] in a line: pKa value was determined. Type of series: physicochemical.
Series [3] addresses T1, Adrenergic receptor alpha-2 (Rattus norvegicus, UniProt P22086+P19328+P22909).
T1 sequence (P22086 whole entry): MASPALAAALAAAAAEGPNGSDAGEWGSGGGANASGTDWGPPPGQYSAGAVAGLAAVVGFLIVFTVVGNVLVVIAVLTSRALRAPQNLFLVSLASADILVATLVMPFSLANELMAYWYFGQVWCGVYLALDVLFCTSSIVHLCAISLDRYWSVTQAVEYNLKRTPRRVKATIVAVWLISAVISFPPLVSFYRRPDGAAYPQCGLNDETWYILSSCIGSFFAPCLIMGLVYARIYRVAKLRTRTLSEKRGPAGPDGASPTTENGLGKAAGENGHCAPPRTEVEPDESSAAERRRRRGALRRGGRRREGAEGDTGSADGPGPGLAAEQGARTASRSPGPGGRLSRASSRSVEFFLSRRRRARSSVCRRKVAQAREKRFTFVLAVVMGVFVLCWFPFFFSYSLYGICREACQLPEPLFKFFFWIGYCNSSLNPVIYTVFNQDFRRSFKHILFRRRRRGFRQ
T1 sequence (P19328 whole entry): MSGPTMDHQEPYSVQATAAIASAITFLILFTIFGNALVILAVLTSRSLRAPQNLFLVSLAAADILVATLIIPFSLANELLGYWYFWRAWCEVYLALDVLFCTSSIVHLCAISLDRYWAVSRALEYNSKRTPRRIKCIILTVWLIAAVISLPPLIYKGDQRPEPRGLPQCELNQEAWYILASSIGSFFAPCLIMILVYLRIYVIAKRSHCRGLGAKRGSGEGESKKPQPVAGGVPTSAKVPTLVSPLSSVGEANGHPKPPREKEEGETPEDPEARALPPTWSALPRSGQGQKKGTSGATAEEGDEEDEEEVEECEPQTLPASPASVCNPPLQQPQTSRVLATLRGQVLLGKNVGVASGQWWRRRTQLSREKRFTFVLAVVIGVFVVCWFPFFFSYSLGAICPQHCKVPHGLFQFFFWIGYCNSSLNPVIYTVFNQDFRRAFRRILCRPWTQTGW
T1 sequence (P22909 whole entry): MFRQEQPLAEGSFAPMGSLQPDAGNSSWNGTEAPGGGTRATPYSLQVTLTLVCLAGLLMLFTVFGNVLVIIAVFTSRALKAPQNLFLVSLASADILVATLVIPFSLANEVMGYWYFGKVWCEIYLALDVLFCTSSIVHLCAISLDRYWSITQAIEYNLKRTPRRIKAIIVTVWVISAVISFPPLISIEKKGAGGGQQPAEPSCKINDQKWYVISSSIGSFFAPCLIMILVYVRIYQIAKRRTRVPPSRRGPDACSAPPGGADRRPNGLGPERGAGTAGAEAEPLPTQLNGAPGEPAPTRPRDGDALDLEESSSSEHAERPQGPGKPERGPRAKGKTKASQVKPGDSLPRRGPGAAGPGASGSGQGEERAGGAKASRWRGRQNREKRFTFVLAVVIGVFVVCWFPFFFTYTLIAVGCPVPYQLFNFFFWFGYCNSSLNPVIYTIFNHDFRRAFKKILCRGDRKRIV
Nature of the series: Binding affinity towards Alpha-2 adrenergic receptor was measured through displacement of [3H]-RX-821002. Format: protein assay.

Series [4] addresses T2, Adrenergic receptor alpha-1 (Rattus norvegicus, UniProt P15823+P23944+P43140).
T2 sequence (P15823 whole entry): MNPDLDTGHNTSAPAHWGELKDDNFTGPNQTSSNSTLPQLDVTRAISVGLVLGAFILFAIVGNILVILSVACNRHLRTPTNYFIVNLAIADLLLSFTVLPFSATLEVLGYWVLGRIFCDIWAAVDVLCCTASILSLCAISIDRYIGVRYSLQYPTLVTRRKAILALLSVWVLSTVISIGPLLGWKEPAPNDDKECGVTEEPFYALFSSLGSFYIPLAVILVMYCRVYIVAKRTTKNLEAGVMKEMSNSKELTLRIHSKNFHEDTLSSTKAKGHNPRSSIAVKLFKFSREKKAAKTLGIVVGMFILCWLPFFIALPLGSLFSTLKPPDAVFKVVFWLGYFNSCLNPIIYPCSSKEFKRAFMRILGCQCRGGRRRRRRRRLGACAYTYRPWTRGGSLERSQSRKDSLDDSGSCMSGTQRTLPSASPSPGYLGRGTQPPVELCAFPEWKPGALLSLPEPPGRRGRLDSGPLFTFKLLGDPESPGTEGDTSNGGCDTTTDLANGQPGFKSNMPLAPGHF
T2 sequence (P23944 whole entry): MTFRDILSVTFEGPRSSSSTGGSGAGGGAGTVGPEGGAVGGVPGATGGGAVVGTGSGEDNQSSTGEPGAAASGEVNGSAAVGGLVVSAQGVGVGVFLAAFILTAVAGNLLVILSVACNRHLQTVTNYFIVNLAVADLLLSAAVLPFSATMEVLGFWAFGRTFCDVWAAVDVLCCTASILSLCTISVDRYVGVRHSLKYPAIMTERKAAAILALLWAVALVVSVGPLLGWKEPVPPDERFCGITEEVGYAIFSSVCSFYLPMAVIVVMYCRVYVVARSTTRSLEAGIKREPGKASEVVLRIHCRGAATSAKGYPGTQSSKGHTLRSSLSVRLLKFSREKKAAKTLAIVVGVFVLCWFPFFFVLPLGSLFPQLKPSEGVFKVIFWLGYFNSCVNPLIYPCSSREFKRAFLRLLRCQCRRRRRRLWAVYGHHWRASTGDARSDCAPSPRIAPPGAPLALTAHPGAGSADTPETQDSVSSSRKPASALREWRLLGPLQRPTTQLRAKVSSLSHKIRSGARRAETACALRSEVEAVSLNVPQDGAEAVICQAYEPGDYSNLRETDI
T2 sequence (P43140 whole entry): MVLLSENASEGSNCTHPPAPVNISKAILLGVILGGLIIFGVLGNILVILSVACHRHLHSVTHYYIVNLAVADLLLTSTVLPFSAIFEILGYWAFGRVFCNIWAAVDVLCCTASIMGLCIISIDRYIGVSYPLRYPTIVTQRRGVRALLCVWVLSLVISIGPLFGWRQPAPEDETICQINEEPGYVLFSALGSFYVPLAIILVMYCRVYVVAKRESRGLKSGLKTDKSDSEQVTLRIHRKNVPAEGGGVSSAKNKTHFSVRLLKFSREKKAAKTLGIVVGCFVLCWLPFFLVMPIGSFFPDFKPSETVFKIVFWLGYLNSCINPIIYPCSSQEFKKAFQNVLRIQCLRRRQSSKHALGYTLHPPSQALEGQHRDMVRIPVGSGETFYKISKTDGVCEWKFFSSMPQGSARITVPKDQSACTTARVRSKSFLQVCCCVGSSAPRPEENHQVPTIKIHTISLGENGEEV
Nature of the series: Binding affinity towards Alpha-1 adrenergic receptor was measured through displacement of [3H]prazosin. Format: protein assay.

The species named for series [5] is Rattus norvegicus. The experiment in a line: Effect on K+ channels in rat cortical neurones at 10 uM. Type of series: functional.

One may read the Ki as a measure of affinity in units of concentration, obtained from inhibition or displacement. A lower Ki goes with tighter binding. For the compound `CCCCCNC1=NCCN1OCc1cccc(F)c1`, the Ki in series [1] was determined as 23 nM.
Consider `CCCCCNC1=NCCN1OCc1ccccc1C`, for which the affinity in series [1], expressed as Ki, was 34 nM.
In series [1], `CCCCCNC1=NCCN1OCc1ccc(F)cc1` gave a Ki of 100 nM.
In series [1], `CCCCCNC1=NCCN1OCc1ccc(C)cc1` showed a Ki of 230 nM.
Compound `CCCCNC1=NCCN1OCc1ccccc1` showed a Ki in series [1] of 60 nM.
The same measure, in the same setting: the same measure for `Oc1ccc(CCNC2=NCCN2OCc2ccccc2)cc1`: 380 nM.
Broadly, the pKa is the negative logarithm of the acid dissociation constant. A higher pKa goes with a weaker acid or stronger base. In series [2], `CCCCCNC1=NCCN1CCc1ccccc1` came in with a pKa greater than 12. Besides, the Ki in series [1] worked out at 230 nM.
Compound `CCCCCNC1=NCCN1OCc1ccc(OC)cc1` yielded a Ki in series [1] of 110 nM. This lies in the sub-micromolar range.
With `CCCCCNC1=NCCN1OCc1ccccc1`, the pKa in series [2] worked out at 10.1. Moreover, the Ki was 30000 nM in series [3] and 5500 nM in series [4]. The same compound yielded an Effect in series [5] of 48%.
In series [1], `CCCCCNC1=NCCN1OCc1ccc(Cl)cc1` returned a Ki of 170 nM.
On to `CCCCCNC1=NCCN1OCCCc1ccccc1`, for which the pKa in series [2] is 10. The compound also had a Ki in series [1] of 980 nM.
In turn, `CCCCCNC1=NCCN1OCCc1ccccc1` registered a pKa in series [2] of 9.9. In addition, the inhibition constant Ki in series [3] was found to be 10000 nM; in series [4], 4900 nM. Further, the Effect in series [5] is recorded as 63%.
As to `CCCCC/N=C1/CCCN1CCc1ccccc1`, the pKa in series [2] was greater than 11.
`CCCCCNC1=NCCN1OCc1ccc(-c2ccccc2)cc1`: the Ki in series [1] stood at 1100 nM.
For `CCCCCNC1=NCCN1OCc1ccc([N+](=O)[O-])cc1`, in series [1], affinity was put at a Ki of 1100 nM.
The compound `OCCNC1=NCCN1OCc1ccccc1` came in with a Ki in series [1] of 2250 nM.
With `CCCCCNC1=NCCN1OCc1cccc(C)c1`, the Ki in series [1] amounted to 38 nM.
Regarding `C=CCNC1=NCCN1OCc1ccccc1`, the Ki in series [1] was 1100 nM.
Take `c1ccc(COCCNC2=NCCN2OCc2ccccc2)cc1`: the affinity in series [1], expressed as Ki, was 1500 nM.
As to `c1ccc(CON2CCN=C2NC2CC2)cc1`, the affinity in series [1] corresponds to a Ki of 260 nM. This Ki lies about 5.8-fold lower than the previous one.
`CCCCCSC1=NCCN1OCc1ccccc1` yielded a pKa in series [2] of 8.5. Moreover, in series [1], the affinity, expressed as Ki, was 6000 nM.
`c1ccc(CCCNC2=NCCN2OCc2ccccc2)cc1` yielded a Ki in series [1] of 750 nM. That is a sub-micromolar value.
Take `c1ccc(CON2CCN=C2NCc2cccnc2)cc1`: affinity in series [1] was put at a Ki of 380 nM.
Still for that read-out and setting: the same measure for `c1ccc(CNC2=NCCN2OCc2ccccc2)cc1`: 130 nM.
In turn, `c1ccc(CCCCNC2=NCCN2OCc2ccccc2)cc1` registered a Ki in series [1] of 380 nM.
On to `CCCCCNC1=NCCN1OCc1ccccc1OC`, for which the Ki in series [1] came out at 280 nM. The Ki values of the last two compounds are within 1.5-fold of each other.
`CC(C)NC1=NCCN1OCc1ccccc1` displayed a Ki in series [1] of 5600 nM.
In series [2], `CCCCNC1=NCCCN1OCc1ccccc1` yielded a pKa greater than 12. This compound gave an inhibition constant Ki in series [1] of 750 nM.
For `CCCCCNC1=NCCN1OCc1ccccc1F`, the Ki in series [1] amounted to 15 nM.
For `CCCCCCNC1=NCCN1OCc1ccccc1`, in series [1], affinity was put at a Ki of 75 nM.
In series [1], `CCCCCNC1=NCCN1OCc1cccs1` gave a Ki of 56 nM.
In the case of `CCCCCNC1=NCCN1OCc1ccccc1Cl`, the Ki in series [1] is 38 nM.
In series [1], `c1ccc(CCNC2=NCCN2OCc2ccccc2)cc1` had a Ki of 1100 nM. This Ki lies about 29-fold higher than the previous one.
On the same count and under the same terms, the same measure for `CCCCCNC1=NCCN1OCc1cccc([N+](=O)[O-])c1`: 530 nM; for `CCCCCNC1=NCCN1OCc1cccc(OC)c1`: 560 nM.
As to `CCCCCNc1nc2ccccc2n1CCc1ccccc1`, the pKa in series [2] was 7.4.
